Assays:
[1] = tested on: rat MCAO model of stroke; experiment: in vivo assay on brain injury following MCAO; design: species or system Sprague-Dawley rats
Method: The control group received Hepes buffered saline.
Four drug treated groups received Compound 1. For each rat, the treatment was initiated at 60 minutes post middle cerebral artery occlusion (MCAO) by an IV bolus injection which was immediately followed by IV infusion for 4 hours at rate of 0.5 ml/hr. Group 1 (n=9) received a dose of 100 mg/kg IV bolus followed by 20 mg/kg/hr IV infusion for 4 hours. Group 2 (n=11) received a dose of 30 mg/kg IV bolus followed by 6 mg/kg/hr IV infusion for 4 hours. Group 3 (n=9) received a dose of 10 mg/kg IV bolus followed by 2 mg/kg/hr IV infusion for 4 hours. Group 3 rats were also treated at 120 minutes, 180 minutes and 360 minutes post-occlusion. Group 4 (n=8) received a dose of 3 mg/kg IV bolus followed by […] IV infusion for 4 hours.
Two additional drug treated groups received 2-(3-sulfanylpropyl)pentanedioic acid. For each rat, the treatment was initiated at 120 minutes post middle cerebral artery occlusion (MCAO) by an IV bolus injection which was immediately followed by IV infusion for 4 hours at rate of 0.5 ml/hr. Group 5 received a dose of 30 mg/kg IV bolus followed by 6 mg/kg/hr IV infusion for 4 hours. Group 6 received a dose of 10 mg/kg IV bolus followed by 2 mg/kg/hr IV infusion.
Twenty two hours following the reperfusion, the rats were euthanized and their brains were removed. Seven coronal sections (2 mm thick) were taken and stained with 1% solution of 2,3,5-triphenyl-tetraxolium chloride (TTC) for 20 minutes and then fixed in 10% formalin. The anterior and posterior surface of the most rostral brain section and the posterior surface of each of the remaining 6 sections were imaged. The quantification of infarct size of each brain was obtained using a computer aided-digital imaging analysis system (LOATS). The brain regions completely lacking TTC-staining were characterized as representative of infarcted tissue. The total infarct volume for each rat was calculated by numeric integration of the respective sequential brain areas.
Male Sprague-Dawley rats (260-320 g) were used. They were individually housed and allowed free access to food and water. Two days prior to the experiment, they were given restricted food if necessary to maintain the body weight Each rat received two surgeries: femoral vein cannulation for IV infusion and MCAO. During surgeries, the rat was anesthetized with 1.5% halothane delivered in oxygen via an inhalation mask. The body temperature was monitored and regulated at normothermic level using a homeothermic heating system. First, a catheter was inserted into the left femoral vein. Thirty minutes later, the rat was reanesthetized for MCAO surgery. The MCAO was achieved using the endovascular suture method described by Long et al., Stroke, Vol. 20, pp. 84-91 (1989). Specifically, the right external carotid artery (ECA) was exposed, coagulated and transected. A 3-0 monofilament nylon suture with a blunted tip and a coat of 0.05% Poly-1-Lysine was introduced into the proximal stump of the ECA via an arteriotomy. It was advanced 22 mm from the carotid bifurcation until it lodged in the proximal region of the anterior cerebral artery, thereby occluding the origin of the MCA. The rats were allowed to wake up; 2 hours later, the rats were reanesthetized for reperfusion, during which the nylon suture was retracted to the stump of the ECA allowing blood recirculation to the MCA.

[2] = tested on: BB/W diabetic rats; experiment: nerve conduction velocity in BB/W diabetic rats; format: in vivo, Male BB/W rats; conditions: 10 mg/kg daily; starting at 8 weeks, through six months
Source text: Male BB/W rats (BR1, Mass) spontaneously develop a cell mediated autoimmune destruction of pancreatic B cells, resulting in onset of insulin-dependent (Type I) diabetes (Guberski 1994). […] This renders them valuable for experimental trials of new compounds for future treatments of this major disorder. In the present study, Compound 1 and Compound 2 were examined for their ability to alter the progression of diabetic neuropathy. The rats received daily injection of Compound 1 or Compound 2 (10 mg/kg i.p.) or vehicle, starting at the onset of diabetes (hyperglycemia) and up to 6 months thereafter. Another group of non-diabetic rats also receiving vehicle were tested. All animals were continuously monitored for body weight, urine volume, blood sugar and glycated haemoglobin. In the first month of the study, all animals were tested for thermal nociception in a Hargreaves apparatus, weekly. After the first month this was done biweekly and then monthly. The testing consists of directing an infrared heat source onto the […] surface of the rat hindpaw and noting the time taken for the animal to remove its paw (for detailed method see Hargreaves et al. 1998). […]
Nerve conduction velocity was also measured every two weeks through the first eight weeks of treatment and every month thereafter through to the six months of treatment (see De Koning et al. 1987 for method details). […]

[3] = tested on: STZ-diabetic animals; experiment: motor and sensory nerve conduction velocity in STZ-diabetic animals; format: in vivo, rats; conditions: either dose (10 mg/kg or 1 mg/kg); significant after 12 weeks at 10 mg/kg, earlier at 1 mg/kg
Method: Male Sprague-Dawley rats (200-225 g) were rendered diabetic by intravenous administration of streptozotocin (STZ, 70 mg/kg in phosphate buffered saline). Diabetic animals were divided into five groups: one group receiving Compound 2 (10 mg/kg or 1 mg/kg), Compound 1 (10 mg/kg or 1 mg/kg) or vehicle. Another group of animals (non-STZ treated) served as non-diabetic controls. Drug/vehicle treatment was started in diabetic animals 45 days post-STZ administration. STZ-induced diabetic rats were tested for sensitivity to a heat source as soon as blood glucose levels rose to 320 mg/dl or above (30 days post STZ). The rats were then acclimated to the Hargreaves apparatus and thermal nociception was monitored using an infrared heat source directed into the […] surface of the hindpaw, and the time taken for the animal to remove its paw noted to the nearest 0.1 seconds (see Hargreaves et al. 1998 for detailed method). The intensity of the beam source was adjusted such that the mean latency for control animals (non-STZ treated) was approximately 10 seconds. Each animal was tested 8 times and the mean difference score (between mean non-diabetic control latency and mean diabetic latency) are graphically presented in FIGS. 19A and 19B.
Motor and sensory nerve conduction velocity was also measured in STZ-diabetic animals after 4, 8 and 12 weeks of treatment (see De Koning and Gispen 1987 for detailed method). Briefly, stimulating needle electrodes were inserted close to the sciatic and tibial nerves with recording electrodes being placed subcutaneously over the distal foot muscles, in anesthetized rats.

With `O=C(O)CCC(CCS)C(=O)O` (stereo not shown) [Compound 1, 2-(2-sulfanylethyl)pentanedioic acid] the “mean total brain infarct volume” value ([1]; Group 1: 100 mg/kg IV bolus + 20 mg/kg/hr IV infusion 4 hours, 60 minutes post MCAO) was 123±31 mm^3, the “mean total brain infarct volume” value ([1]; Group 2: 30 mg/kg IV bolus + 6 mg/kg/hr IV infusion 4 hours, 60 minutes post MCAO) was 141±78 mm^3 and the “mean total brain infarct volume” value ([1]; Group 3: 10 mg/kg IV bolus + 2 mg/kg/hr IV infusion 4 hours, treated at 60 minutes post-occlusion) was 152±32 mm^3. For the same molecule, the “mean total brain infarct volume” value ([1]; Group 4: 3 mg/kg IV bolus + 3 mg/kg/hr IV infusion 4 hours, 60 minutes post MCAO) was 117±22 mm^3, the “neuroprotection in rat MCAO model of stroke” value ([1]; administered 60, 120, 180 and 360 minutes post-occlusion) was “neuroprotective” and the “% Protect” value ([1]; dose 1 mg/kg, 60 minutes post MCAO) was 20%. The “% Protect” value ([1]; dose 3 mg/kg, 60 minutes post MCAO) was 52%, the “% Protect” value ([1]; dose 10 mg/kg, 60 minutes post MCAO) was 50% and the “% Protect” value ([1]; dose 10 mg/kg, 120 minutes post MCAO) was 33%. For the same molecule, the “% Protect” value ([1]; dose 10 mg/kg, 180 minutes post MCAO) was 47%, the “% Protect” value ([1]; dose 10 mg/kg, 360 minutes post MCAO) was 50% and the “% Protect” value ([1]; dose 30 mg/kg, 60 minutes post MCAO) was 52%. The “% Protect” value ([1]; dose 100 mg/kg IV bolus, 60 minutes post MCAO) was 44%, the “infarct size vs. vehicle treated rats” value ([1]; four Compound 1 treated groups) was “significantly smaller infarct size” and the “nerve conduction deficits vs. diabetic controls receiving vehicle” value [2] was “significantly less severe nerve conduction deficits”. For the same molecule, the “motor and sensory nerve conduction velocities vs. diabetic controls” value [3] was “increased”.
